# Test results from patent US20210400971A1, “SAFENING COMPOSITIONS COMPRISING A PHENOXY HERBICIDE AND CLOQUINTOCET FOR CEREAL CROPS AND METHODS THEREOF” (DOW AGROSCIENCES LLC, priority 2018, published 2021).
# Where two headings read alike, the source gives them in different places.
# Legend:
# wheat = settings: cited from earlier work
# [1] = system: spring wheat (Triticum aestivum; TRZAS); experiment: 2016 field trial, Alberta: weed-free tolerance trial, visual phytotoxicity (head deformity) on spring wheat
# Procedure: (§1) One field trial was conducted in Alberta, Canada in 2016 to evaluate whether wheat injury caused by 2,4-D could be reduced by tank-mixing with a herbicide that is preformulated with cloquintocet acid. 2,4-D was applied as either an ester (660 gae/L 2,4-D EHE) or choline salt (456 gae/L 2,4-D choline) at a rate of 700 gae/ha. […] Some treatments were applied with Intake adjuvant at 1% v/v. Intake is a blend of a non-ionic surfactant and a paraffinic oil and is used to improve the spreading and wetting of herbicides. Herbicide treatments were made to spring wheat (Triticum aestivum) and durum wheat (Triticum durum) at the B12-B13 stage. Head deformity was evaluated at 42, 55 and 71 days after treatment (DAT).
# (§2) This trial was established a weed-free tolerance trial. All herbicide treatments were applied post-emergence in the spring (e.g., Jun. 2, 2016). Herbicides were applied with a tractor-mounted sprayer using CO2 as a propellant. The sprayer delivered a uniform spray pattern that provided thorough coverage of the foliage using a 100 L/ha spray volume. Applications were made to spring wheat and durum wheat at the 2-3 leaf stage. Phytotoxicity to wheat was visually assessed as percent overall injury, compared to an untreated control plot. The overall injury assessments were based on visual ratings of growth inhibition, leaf deformity, epinasty, chlorosis, and delay in maturity. The primary injury observed with 2,4-D was head deformity, and therefore those are the only evaluations summarized below. The trial was designed as a randomized complete block with four replicates. Referring now to Table 1, 2,4-D ester (e.g., 2,4-D EHE) and 2,4-D choline at a rate of 700 gae/ha caused head deformity to spring wheat peaking at 8% and to durum wheat peaking at 4%. […] The results provide that cloquintocet (or herbicides containing cloquintocet) could be mixed with 2,4-D ester or choline to reduce head deformity in spring wheat caused by early applications of 2,4-D.
# [2] = system: durum wheat (Triticum durum; TRZDU); experiment: 2016 field trial, Alberta: weed-free tolerance trial, visual phytotoxicity (head deformity) on durum wheat
# Procedure: as §1, §2
# [3] = system: durum wheat (Triticum durum; TRZDU); settings: in vivo
# Procedure: (§3) Two weed-free tolerance field trials were conducted in Alberta and Manitoba, Canada in 2017 to evaluate whether wheat injury caused by 2,4-D ester could be reduced by tank-mixing with cloquintocet-containing products. […] The rate of cloquintocet parent acid delivered by the tank-mix partners ranged from 3.5 to 63.7 gae/ha. All herbicide treatments were applied post-emergence in the spring (Jun. 16, 2017 to Jun. 26, 2017). Herbicides were applied with tractor- or bicycle-mounted sprayers using CO2 as a propellant. The sprayer delivered a uniform spray pattern that provided thorough coverage of the foliage using a 100 L/ha spray volume. Applications were made to spring wheat (Triticum aestivum) and durum wheat (Triticum durum) at the three-leaf stage. Phytotoxicity to wheat was visually assessed as percent overall injury, compared to an untreated control plot. The overall injury assessments were based on visual ratings of growth inhibition, leaf deformity, epinasty, chlorosis, and delay in maturity. […] Head deformity was evaluated at 10 to 12 weeks after treatment (WAT). The trial was designed as a randomized complete block with four replicates.
# [4] = system: spring wheat (Triticum aestivum; TRZAS); settings: in vivo
# Procedure: as §3
# [5] = system: spring wheat (Triticum aestivum; TRZAS); experiment: 2018 field trials, Alberta, Saskatchewan and Manitoba: growth inhibition, head deformity and yield loss on spring wheat; assay type: in vivo; settings: for % Growth Inhibition (66 DAT) TRZAS / % Head Deformity (66 DAT) TRZAS / % Yield Loss (77 DAT) TRZAS: Field Trial 1; for % Growth Inhibition (66 DAT) TRZAS / % Head Deformity (66 DAT) TRZAS / % Yield Loss (77 DAT) TRZAS / % Growth Inhibition (7 DAT) TRZAS / % Growth Inhibition (14 DAT) TRZAS: herbicide 700 gae/ha; for % Yield Loss (77 DAT) TRZAS: relative to commercial standard REXADE A at 20 gae/ha; for % Growth Inhibition (7 DAT) TRZAS: Field Trial 2; for % Growth Inhibition (14 DAT) TRZAS: Field Trial 3
# Procedure: (§4) Growth inhibition was evaluated at 7, 14, and 66 days after treatment (DAT), head deformity was evaluated at 66 days after treatment (DAT), and yield was taken at 77 days after treatment (DAT). All treatments are illustrated in Table 3.
# Weed-free tolerance trials were established. […] The primary injury observed with 2,4-D was growth inhibition, head deformity, and yield loss, therefore those are the only evaluations summarized below.
# [6] = system: durum wheat (Triticum durum; TRZDU); experiment: 2018 field trials, Alberta, Saskatchewan and Manitoba: growth inhibition, head deformity and yield loss on durum wheat; assay type: in vivo; settings: herbicide 700 gae/ha; for % Growth Inhibition (66 DAT) TRZDU / % Head Deformity (66 DAT) TRZDU / % Yield Loss (77 DAT) TRZDU: Field Trial 1; for % Yield Loss (77 DAT) TRZDU: relative to commercial standard REXADE A at 20 gae/ha; for % Growth Inhibition (7 DAT) TRZDU: Field Trial 2; for % Growth Inhibition (14 DAT) TRZDU: Field Trial 3
# Procedure: as §4
# Weed-free tolerance trials were established.
# [7] = 42 DAT, herbicide 700 gae/ha, safener 0, Intake @1% v/v
# [8] = 55 DAT, herbicide 700 gae/ha, safener 0, Intake @1% v/v
# [9] = 71 DAT, herbicide 700 gae/ha, safener 0, Intake @1% v/v
compound,measurement,setting,value
"2,4-D amine",wheat yield reduction,wheat; applied at Stage 13,35%
same,wheat yield reduction,wheat; applied at Stage 44,15%
"O=C(O)COc1ccc(Cl)cc1Cl [2,4-D Choline, 2-hydroxy-N,N,N-trimethylethanaminium 2-(2,4-dichlorophenoxy)acetate]",% TRZAS Head Deformity,[1]; [7],5.8%
same,% TRZAS Head Deformity,[1]; [8],5.8%
same,% TRZAS Head Deformity,[1]; [9],3.0%
same,% TRZDU Head Deformity,[2]; [7],0.0%
same,% TRZDU Head Deformity,[2]; [8],3.5%
same,% TRZDU Head Deformity,[2]; [9],0.8%
"CCCCC(CC)COC(=O)COc1ccc(Cl)cc1Cl (stereo not drawn) [2,4-D Ester, 2-ethylhexyl 2-(2,4-dichlorophenoxy)acetate]","head deformity to spring wheat, peak","[1]; Triticum aestivum (spring wheat), in vivo",≤ 8%
same,% TRZAS Head Deformity,"[1]; Triticum aestivum (spring wheat), in vivo, 42 days",6.5%
same,% TRZAS Head Deformity,"[1]; Triticum aestivum (spring wheat), in vivo, 55 days",7.5%
same,% TRZAS Head Deformity,"[1]; Triticum aestivum (spring wheat), in vivo, 71 days",7.8%
same,"head deformity to durum wheat, peak","[2]; Triticum durum (durum wheat), in vivo",≤ 4%
same,% TRZDU Head Deformity,"[2]; Triticum durum (durum wheat), in vivo, 42 days",0.0%
same,% TRZDU Head Deformity,"[2]; Triticum durum (durum wheat), in vivo, 55 days",4.3%
same,% TRZDU Head Deformity,"[2]; Triticum durum (durum wheat), in vivo, 71 days",3.0%
same,"head deformity to durum wheat, peak",[3],≤ 4%
same,% TRZDU Head Deformity,[3]; 12 weeks,0.0%
same,"head deformity to spring wheat, peak",[4],≤ 10%
same,injury,"[5]; 2018 trials, applied alone or with Agral 90, spring and durum wheat","caused growth inhibition, head deformity and yield loss"
same,% Growth Inhibition (66 DAT) TRZAS,"[5]; safener 0, Agral 90 @ […]",9.1%
same,% Head Deformity (66 DAT) TRZAS,"[5]; safener 0, Agral 90 @ […]",40%
same,% Growth Inhibition (66 DAT) TRZAS,"[5]; safener 0, no adjuvant",10.1%
same,% Head Deformity (66 DAT) TRZAS,"[5]; safener 0, no adjuvant",40%
same,% Yield Loss (77 DAT) TRZAS,"[5]; safener 0, Agral 90 @ […]",3.3%
same,% Yield Loss (77 DAT) TRZAS,"[5]; safener 0, no adjuvant",4.5%
same,% Growth Inhibition (7 DAT) TRZAS,"[5]; safener 0, Agral 90 @ […]",8%
same,% Growth Inhibition (7 DAT) TRZAS,"[5]; safener 0, no adjuvant",4.5%
same,% Growth Inhibition (14 DAT) TRZAS,"[5]; safener 0, Agral 90 @ […]",7.5%
same,% Growth Inhibition (14 DAT) TRZAS,"[5]; safener 0, no adjuvant",7%
same,% Growth Inhibition (66 DAT) TRZDU,"[6]; safener 0, Agral 90 @ […]",1.9%
same,% Head Deformity (66 DAT) TRZDU,"[6]; safener 0, Agral 90 @ […]",5.3%
same,% Growth Inhibition (66 DAT) TRZDU,"[6]; safener 0, no adjuvant",2.6%
same,% Head Deformity (66 DAT) TRZDU,"[6]; safener 0, no adjuvant",5%
same,% Yield Loss (77 DAT) TRZDU,"[6]; safener 0, Agral 90 @ […]",8.8%
same,% Yield Loss (77 DAT) TRZDU,"[6]; safener 0, no adjuvant",6.1%
same,% Growth Inhibition (7 DAT) TRZDU,"[6]; safener 0, Agral 90 @ […]",8.5%
same,% Growth Inhibition (7 DAT) TRZDU,"[6]; safener 0, no adjuvant",5.5%
same,% Growth Inhibition (14 DAT) TRZDU,"[6]; safener 0, Agral 90 @ […]",8.5%
same,% Growth Inhibition (14 DAT) TRZDU,"[6]; safener 0, no adjuvant",7%
same,wheat yield reduction,wheat; applied at Stage 13,39%
same,wheat yield reduction,wheat; applied at Stage 44,16%
